Activity calls are given as the source filed them. No rule for the calls is given here.

The subject of this test is STC-1 cells GLP-1 secretion. The test is described as follows: dose-response assay, glucagon-like peptide-1 release in STC-1 line, potency as half-maximal inhibitory concentration (AID 1117345).
A word on the IC50: it is the concentration at which inhibition is half-maximal. Turning to `CCCCCCCCCCCCCC[N+](C)(C)C`, the IC50 is > 40000 nM (inactive). With `CCCCCCCCCCCC(=O)[O][Sn]([CH2]CCC)([CH2]CCC)[O]C(=O)CCCCCCCCCCC` the figure was > 40000 nM (inactive); with `OCCN1CCN(CC/C=C2/c3ccccc3Sc3ccc(C(F)(F)F)cc32)CC1`, > 40000 nM (inactive); with `CC(=O)[O][Hg][c]1ccccc1`, 713 nM. With `Cc1ccc([N+](=O)[O-])[c]2c1[O][Hg]2` the figure was 97.2 nM.

These data come from PubChem BioAssay AID1117345.
